According to patent publication US7534766B2, “Glucuronide metabolites and epimers thereof of tigecycline” (Wyeth, priority 2004, dated 2009):
Values belong to the compound of their own block, whether it stands above or below them.

Columns and labels:
[1] = Stability of [14C]tigecycline during extraction from control human fecal homogenates; type: in vitro ADME
From the text: Similar results were observed following the extraction of [^14C]tigecycline from control fecal homogenates. In these samples, [^14C]tigecycline accounted for 94% of the radioactivity prior to extraction and 68% following the extraction. There was a corresponding increase in the epimer of tigecycline, which represented 4% of the radioactivity prior to extraction and 23% following the extraction. […] Other minor products represented less than 1% of the radioactivity prior to the extraction and 4% following the extraction.
The stability of [^14C]tigecycline during the extraction process was determined in control human fecal homogenates spiked with [^14C]tigecycline at 5 μg/g of homogenate. […] Samples were extracted and analyzed by HPLC with radioactivity flow detection.

[2] = LC/MS characterization of tigecycline related compounds in human serum, urine and feces; type: in vivo; settings: human, after single 50 mg IV [14C]tigecycline dose
From the text: Three HPLC conditions were used during LC/MS analysis in this study. LC/MS Condition 1 was used for the majority of sample analyses for metabolite characterization and to isolate metabolite M3a from urine. LC/MS Condition 2 was used on selected samples to increase the retention time of glucuronide metabolites and for a co-chromatography experiment to confirm the identity of metabolites M8 and M9. LC/MS Condition 3 was used to analyze the polar metabolite M3a isolated from human urine.
The UV detector was set to monitor 340-360 nm. […] The flow rate was 0.2 mL/min. […] The linear mobile phase gradient is shown below.
Separations were accomplished on a Phenomenex Luna C18(2) column (250×2.0 mm, 5 μm) with a Uniguard C18 guard column (10×2 mm) (ThermoHypersil-Keystone). The flow rate was 0.2 mL/min. […] Mobile phase A was 0.02% trifluoroacetic acid in water (v/v) and mobile phase B was 0.02% trifluoroacetic acid in acetonitrile (v/v). The linear mobile phase gradient is shown below.
A Micromass Quattro Ultima triple quadrupole mass spectrometer (Waters Corp.) was operated in the positive ionization mode. LC/MS analysis with electrospray ionization (ESI) was conducted using a Z-spray interface. ESI-MS analysis of individual fractions from selected samples was conducted by direct infusion into a nanospray interface. Settings for the mass spectrometer are listed below.
Urine and feces samples were analyzed for tigecycline metabolites by LC/MS/MS analysis for precursors of product ions characteristic of tigecycline. Additionally, potential metabolites of tigecycline were searched for in the LC/MS data based upon results from previous studies in animals and humans.
Serum extracts were analyzed for tigecycline and selected metabolites by LC/MS/MS in the selected reaction monitoring (SRM) mode (LC/SRM) to reduce interference from endogenous components. […] The following tigecycline related components were monitored.

[3] = LC/MS detection of tigecycline and its metabolites in humans, dogs and/or rats; settings: LC/MS of human serum, urine, feces and rat and dog plasma and urine
Procedure: Characterization of the tigecycline metabolites in human serum, urine and feces, and rat and dog plasma and urine was performed using LC/MS analysis (Table 5).

[4] = Estimated concentrations in rabbit serum by LC/MS (SRM) after intravenous tigecycline; type: in vivo, New Zealand White rabbit
Procedure: Three female New Zealand White rabbits, weighing between 3.9 and 4.3 kg at the time of dosing, were used. Animals were given food and water ad libitum. Animals were individually housed in standard cages. Rabbits were dosed at Wyeth Research, Chazy, N.Y. and samples shipped frozen to the Wyeth Research Biotransformation Department, Collegeville, Pa.
Standard curves for tigecycline, M3 and M9 were prepared in rabbit serum. Standard curves were prepared by adding the internal standard and synthetic tigecycline and metabolite standards to control plasma. Standard curve samples were prepared with tigecycline concentrations of 0, 10, 20, 50, 100, 200, 500 and 1000 ng/mL, with the linear range being […]. For 9-aminominocycline (M3), the concentrations were 0, 1, 5, 10, 20, 50, 100 and 200 ng/mL, with the linear range being 10 to 200 ng/mL. For N-acetyl-9-aminominocycline (M9), the concentrations were 1.6, 3.2, 6.4, 16, 32, 64 and 96 ng/mL, with the linear range being from 3.2 to 96 ng/mL. These samples were processed and analyzed as described above.
The column temperature was 25° C. The flow rate was 0.2 mL/min. […] Gradient 1 was used for metabolite identification (qualitative analysis).
Micromass MassLynx (version 4.0, Waters Corp.) was used for analysis of LC/MS data. The concentrations of tigecycline, 9-aminominocycline (M3) and N-acetyl-9-aminominocycline (M9) in serum were calculated based on the analyte to internal standard peak area ratios in the samples as compared to the standard curves generated in rabbit serum.

[5] = Safety and tolerability of intravenous tigecycline in healthy male volunteers; type: in vivo, human; settings: IV 100-mg dose, five 50-mg doses, single 50-mg [14C]tigecycline dose
From the text: The clinical protocol called for twelve subjects.

[6] = Mass balance: percent of [14C]tigecycline dose excreted in human urine and feces
Procedure: The concentration of tigecycline-related components in serum, urine and feces was calculated based on the total radioactivity concentrations reported elsewhere. These concentrations were converted to ng-tigecycline equivalents using the specific activity of the dose (1.00 μCi/mg). Using this value, the concentrations of the specific components were then estimated based on the distribution of radioactivity in the radiochromatograms.
An open-label, inpatient, multiple-dose tigecycline, single-dose [^14C]tigecycline metabolic disposition and mass balance study was performed in six healthy male volunteers. The clinical protocol called for twelve subjects. Of these twelve, six received the radioactive dose (subjects 1, 4, 5, 6, 7, and 8 with subject 8 later dropping out of the study.) Eligible subjects were selected based on inclusion/exclusion criteria, medical history, physical examination and additional procedures outlined in the study protocol. Each subject received a 100 mg loading dose on the morning of Day 1, followed by a 50 mg maintenance dose every 12 hours for an additional 5 doses. On the morning of study Day 4, six subjects received a single 50 mg dose of [^14C]tigecycline (50 μCi). Each tigecycline dose was administered via a 30-minute intravenous infusion.
Serum samples were collected for metabolite profiling prior to tigecycline dosing and 1, 4, 8, 24 and 48 hours following the [^14C]-labeled dose. For metabolite profiling, urine samples were collected at 0-4, 4-8, 8-24 and 24-48 hours and fecal samples were collected up to 48 hours following the [^14C]-labeled dose. Serum and urine samples, and fecal homogenates were shipped on dry ice to the Biotransformation Division of Drug Safety and Metabolism, Wyeth Research, Collegeville, Pa. The details of the sample collection and sample storage are described in the mass balance portion of the study. The 24-48 hour urine and fecal samples for subject #6 were incomplete since the subject withdrew from the study. While samples from this subject were used for metabolite profiling, the samples were not included in the mass balance calculations.

increase in percent of the radioactivity, control fecal homogenates ([1]; during the extraction): 4%
percent of the radioactivity, control fecal homogenates ([1]; following the extraction): 5%
percent of the radioactivity, control fecal homogenates ([1]; prior to extraction, 5 μg/g of homogenate): 1%
Matrix in which the compound was observed [2]: S, U, F
Species in which detected [3]: R, D, H
Structure (SMILES): CC(C)(C)NCC(=O)O [Metabolite M3a, t-butylaminoacetic acid]

Matrix in which the compound was observed [2]: S, U, F
concentration at 0.5 h ([4]; 0.5 hr after 4 mg/kg IV tigecycline, pooled serum, female New Zealand White rabbits): 2020 ng/mL
concentration at 2 h ([4]; female, New Zealand White, 2 hr after 4 mg/kg IV tigecycline, pooled serum): 1040 ng/mL
concentration at 6 h ([4]; female, New Zealand White, 6 hr after 4 mg/kg IV tigecycline, pooled serum): 287 ng/mL
concentration at 1 h ([4]; female, New Zealand White, serum, at 1 hour, 4 mg/kg IV tigecycline): 2020 ng/mL
Species in which detected [3]: R, D, H
Percentage of Dose (mean ± standard deviation) excreted ([6]; Feces (0–48 hours), n = 5): 9.9 ± 7.9%
Percentage of Dose (mean ± standard deviation) excreted ([6]; Total Urine (0-48 hours), n = 5, ND = not detected): 14.8 ± 2.9%
Percentage of Dose (mean ± standard deviation) excreted ([6]; Total urine + feces (0–48 hours), n = 5): 24.7 ± 8.7%
Percentage of Dose (mean ± standard deviation) excreted ([6]; Urine 0–4 hours, ND = not detected): 7.1 ± 0.9%
Percentage of Dose (mean ± standard deviation) excreted ([6]; Urine 4–8 hours, ND = not detected): 2.4 ± 1.1%
Percentage of Dose (mean ± standard deviation) excreted ([6]; Urine 8–24 hours, ND = not detected): 3.3 ± 1.1%
Percentage of Dose (mean ± standard deviation) excreted ([6]; Urine 24–48 hours, n = 5, ND = not detected): 1.7 ± 0.7%
Structure (SMILES): CN(C)c1cc(NC(=O)CNC(C)(C)C)c(O)c2c1C[C@H]1C[C@H]3[C@H](N(C)C)C(O)=C(C(N)=O)C(=O)[C@@]3(O)C(O)=C1C2=O [Tigecycline]
adverse event frequency: dyspepsia [5]: 17%
adverse event frequency: injection site inflammation [5]: 17%
adverse event frequency: nausea [5]: 75%
adverse event frequency: vomiting [5]: 50%
safety and tolerability [5]: generally safe and well tolerated
